Experimental data reported in US9593144B2, “FPR1 antagonist derivatives and use thereof” (CHANG GUNG UNIVERSITY, priority 2014, dated 2017).
Like-named read-outs stand apart in the source and are kept apart here. Square brackets hold non-standard residues; d marks the D form. Peptide text beside a SMILES is read from it. * marks the point of attachment. Bz = O=C(c1ccccc1)*

Test system: human neutrophils
Assay: cells
Type: cell-based
Settings: Neutrophil, mean ± SEM
Protocol: Degranulation of azurophilic granules was determined by elastase release as described above. Experiments were performed using MeO-Suc-[…]-nitroanilide as the elastase substrate. […] Results are expressed as the percentage of elastase release in the drug-free control group, DMSO. Tables 5 and 6 explore whether there is an anti-inflamatory effect in the dipeptide derivatives. Because ferricytochrome c cannot penetrate cell membranes, it reacts with superoxide anion extracellularly. Also, there are absorptive reactions at 550 nm, and differences among the absorptive reactions can be used to evaluate the influence on the release of superoxide anion. The elastase is released by degranulation as the neutrophil is activated. Tables 5 and 6 use the substrate, MeO-Suc-[…]-nitroanilide, with the specificity for reacting with the elastase so as to evaluate the influence of the candidate compound on the elastase release. Blood was taken from healthy human donors (20-32 years old) by venipuncture, following a protocol approved by the Institutional Review Board at Chang Gung Memorial Hospital. Neutrophils were isolated by a standard method of dextran sedimentation prior to centrifugation in a Ficoll Hypaque gradient and the hypotonic lysis of erythrocytes. […] The degranulation of azurophilic granules was determined by elastase release as described above. Experiments were performed using MeO-Suc-[…]-nitroanilide as the elastase substrate. Briefly, after supplementation with MeO-Suc-[…]-nitroanilide ([…] neutrophils (6×10^5 ml^-1) were equilibrated at 37° C. for 2 min and incubated with drugs for 5 min. […] The results are expressed as the percentage of elastase release in the drug-free control group.

COC(=O)[C@@H](Cc1ccccc1)NC(=O)[C@H](Cc1c[nH]c2ccccc12)NC(=O)c1ccccc1 [Compound 3, N—(N-Benzoyl-L-tryptophanyl)-D-phenylalanine methyl ester] (Bz-Trp-[dF]-OMe)
IC50 (WKYMVm, n = 4 or 8, Table 6, read-out: Elastase release WKYMVm IC50): 5220 ± 700 nM
IC50 (WKYMVm/CB, n = 3, Table 4, read-out: WKYMVm/CB NE release (IC50)): 4610 ± 720 nM
IC50 (fMLF, n = 4 or 8, Table 6, read-out: Elastase release fMLF IC50): 570 ± 70 nM
IC50 (fMLF/CB, n = 3, Table 4, read-out: fMLF/CB NE release (IC50)): 600 ± 70 nM
IC50 (fMLP/CB, n = 3, Table 1, read-out: Anti-inflammation NE release (IC50)): 600 ± 70 nM
